Several values for one entry are separate records, joined by “and”; a condition that tells them apart may be missing. Identical values can stand only once. Like-named read-outs stand apart in the source and are kept apart here.
Legend:
Assay type in all cases: cell-based
[1] = system: GluATCVshort (GluA1/KcvATCV-1 chimera); test: Two-electrode voltage clamp of GluATCVshort expressing Xenopus oocytes
Description: (§1) The GluATCV constructs were generated by replacing the nucleotide sequence encoding amino acids 538–629 (GluATCVlong), 634 (GluATCV short) and 642 (GluATCV) of the mature GluA1 by the KcvATCV-1 sequence with the use of XhoI and NheI. The GluATCV^ΔNTD and GluATCV^ΔM4 constructs were generated by excising the nucleotide sequence encoding amino acids 19–394 and upstream of 784 of the mature GluA1 by deletion PCR, respectively. All constructs were confirmed by DNA sequencing (Seqlab, Göttingen, Germany).
(§2) cRNAs were synthesized by using the AmpliCap-Max™ T7 High Yield Message Maker Kit of Cellscript (Madison, Wi, USA) with the plasmid linearized by AatII. X. laevis oocytes were used for two electrode voltage-clamp (TEVC) electrophysiology as previously described. […] The TEVC recordings were performed at room temperature with an Axoclamp 900A amplifier, digitized with a Digidata 1550A at 5 kHz after low-pass filtering at 200 Hz and recorded with Clampex 10.7 (Molecular Devices, San Jose, USA). […]
(§3) Permeability ratio was calculated by the shift of the reversal potential with the Goldman–Hodgkin–Katz equation under bi-ionic conditions PNa^+/PK^+=expΔErev*F/R*T [27]. The amplitude was measured with KielPatch and also the open probability in bilayer measurements was analyzed by the build in Hinkley-jump-detector of KielPatch (http://www.zbm.uni-kiel.de/aghansen/software.html). […]

[2] = system: GluATCV (GluA1/KcvATCV-1 chimera); test: Two-electrode voltage clamp of GluATCV expressing Xenopus oocytes
Description: as §1
(§4) cRNAs were synthesized by using the AmpliCap-Max™ T7 High Yield Message Maker Kit of Cellscript (Madison, Wi, USA) with the plasmid linearized by AatII. X. laevis oocytes were used for two electrode voltage-clamp (TEVC) electrophysiology as previously described. Oozytes were surgically obtained from female X. laevis after anesthesia with 0.1% Tricaine in water under the approval of the Technical University of Darmstadt (Agreement V54-19c20/15 DA8/Anz. 20). After the harvest, oocytes were incubated for 1 h in 0.8 mg collagenase in frog ringer [96 mM NaCl, 2 mM KCl, 1 mM CaCl2,1 mM MgCl2, and 5 mM HEPES (pH 7.4 with NaOH)][53]. After the treatment and a washing step with Ca^2+ free ringer [96 mM NaCl, 2 mM KCl,1 mM MgCl2, and 5 mM HEPES (pH 7.4 with NaOH)] oocytes of stage V and VI were selected and defolliculated by pipetting with a burned glass-Pasteur-pipette. For electrophysiological analysis, oocytes were injected with 50 ng in a volume of 50 nl of the respective construct. After injection the oocytes were incubated in ND-96 solution (96 mM NaCl, 2 mM KCl, 1 mM CaCl2, 1 mM MgCl2, 5 mM HEPES, pH 7.4 with NaOH) at 18 °C for 3–5 days until the electrophysiological measurements. The TEVC recordings were performed at room temperature with an Axoclamp 900A amplifier, digitized with a Digidata 1550A at 5 kHz after low-pass filtering at 200 Hz and recorded with Clampex 10.7 (Molecular Devices, San Jose, USA). For recording the microelectrodes were filled with 3 M KCl (resistance 0.8–2.8 MΩ in external solution) and the oocytes were clamped at −70 mV. The external solution was a modified ringer solution containing 100 mM KCl; 10 mM HEPES; 1.8 mM CaCl2; 1 mM MgCl2 (pH 7.4 with KOH) alone or containing agonist.
(§5) Permeability ratio was calculated by the shift of the reversal potential with the Goldman–Hodgkin–Katz equation under bi-ionic conditions PNa^+/PK^+=expΔErev*F/R*T [27]. The amplitude was measured with KielPatch and also the open probability in bilayer measurements was analyzed by the build in Hinkley-jump-detector of KielPatch (http://www.zbm.uni-kiel.de/aghansen/software.html). Values given represent means ± SEM. Statistical significance was determined at the p < 0.05 (*), p < 0.01 (**), and p < 0.001 (***) levels using a Student’s two-tailed, unpaired two-side t-test or ANOVA (in case of more groups) and a Tukey post-hoc analysis (Prism 7.00). All data are shown as boxplots with a center line representing the median; box limits are the upper and lower quartiles; whiskers representing min and max.

[3] = biological target: GluATCV* (GluATCV G614S/F615L) (Rattus norvegicus, UniProt P19490, L497Y); settings: GluATCV* oocytes; for Glutamate-induced fraction of the Ba^2+-block (IGlu/IBa): fraction of total Ba^2+-sensitive current
Description: as §1, §4, §5

[4] = biological target: T1, GluA1 glutamate receptor carrying the mutation L479Y (Rattus norvegicus, UniProt P19490, L497Y); test: Two-electrode voltage clamp of GluA1 expressing Xenopus oocytes; settings: CNQX IC50, GluA1 (L479Y) oocytes, in the presence of 5 µM glutamate (EC50), n = 5
T1 construct: expressed in transfected cells; host or cells: Xenopus laevis oocytes (cRNA injection)
Description: as §1, §2, §3

[5] = system: GluATCVlong (GluA1/KcvATCV-1 chimera); test: Two-electrode voltage clamp of GluATCVlong expressing Xenopus oocytes
Description: as §1
as §2, with “described. Oozytes were surgically obtained from female X. laevis after anesthesia with 0.1% Tricaine in water under the approval of the Technical University of Darmstadt (Agreement V54-19c20/15 DA8/Anz. 20). After the harvest, oocytes were incubated for 1 h in 0.8 mg collagenase in frog ringer [96 mM NaCl, 2 mM KCl, 1 mM CaCl2,1 mM MgCl2, and 5 mM HEPES (pH 7.4 with NaOH)][53].” for “described.”

GluATCV*^ΔNTD = GluATCV*^ΔNTD (Rattus norvegicus, UniProt P19490, L497Y); settings: GluATCV*^ΔNTD oocytes, saturating glutamate concentrations, n = 5
Description: as §1, §4, §5

Sequence of GluATCV* (GluATCV G614S/F615L) (A7K9J5 entry or part of it G77S/F78L): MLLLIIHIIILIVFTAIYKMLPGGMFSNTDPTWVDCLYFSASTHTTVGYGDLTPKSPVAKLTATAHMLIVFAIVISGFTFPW
Sequence of GluATCV* (GluATCV G614S/F615L) (P19490 other isoform, or with tags, fused parts or gaps L497Y): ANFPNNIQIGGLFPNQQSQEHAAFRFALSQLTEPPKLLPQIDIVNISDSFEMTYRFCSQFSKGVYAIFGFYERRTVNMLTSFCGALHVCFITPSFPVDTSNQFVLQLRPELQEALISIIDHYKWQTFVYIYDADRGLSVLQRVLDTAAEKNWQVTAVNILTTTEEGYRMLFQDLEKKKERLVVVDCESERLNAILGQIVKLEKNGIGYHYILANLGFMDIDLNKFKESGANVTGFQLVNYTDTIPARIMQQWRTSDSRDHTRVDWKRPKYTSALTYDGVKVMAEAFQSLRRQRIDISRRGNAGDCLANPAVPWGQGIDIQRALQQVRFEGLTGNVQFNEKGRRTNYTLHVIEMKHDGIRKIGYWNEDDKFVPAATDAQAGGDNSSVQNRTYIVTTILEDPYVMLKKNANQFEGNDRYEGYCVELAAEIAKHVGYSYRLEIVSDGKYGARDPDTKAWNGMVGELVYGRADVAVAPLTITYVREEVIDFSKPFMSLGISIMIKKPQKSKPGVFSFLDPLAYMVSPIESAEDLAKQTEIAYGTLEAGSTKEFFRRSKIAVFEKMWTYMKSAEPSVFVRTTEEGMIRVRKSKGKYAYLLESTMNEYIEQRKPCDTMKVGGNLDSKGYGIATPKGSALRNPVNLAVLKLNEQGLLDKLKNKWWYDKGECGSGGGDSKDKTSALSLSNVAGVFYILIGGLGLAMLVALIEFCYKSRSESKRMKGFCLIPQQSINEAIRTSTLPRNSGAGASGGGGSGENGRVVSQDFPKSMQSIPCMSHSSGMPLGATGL
T1 sequence (P19490 19-907 L497Y): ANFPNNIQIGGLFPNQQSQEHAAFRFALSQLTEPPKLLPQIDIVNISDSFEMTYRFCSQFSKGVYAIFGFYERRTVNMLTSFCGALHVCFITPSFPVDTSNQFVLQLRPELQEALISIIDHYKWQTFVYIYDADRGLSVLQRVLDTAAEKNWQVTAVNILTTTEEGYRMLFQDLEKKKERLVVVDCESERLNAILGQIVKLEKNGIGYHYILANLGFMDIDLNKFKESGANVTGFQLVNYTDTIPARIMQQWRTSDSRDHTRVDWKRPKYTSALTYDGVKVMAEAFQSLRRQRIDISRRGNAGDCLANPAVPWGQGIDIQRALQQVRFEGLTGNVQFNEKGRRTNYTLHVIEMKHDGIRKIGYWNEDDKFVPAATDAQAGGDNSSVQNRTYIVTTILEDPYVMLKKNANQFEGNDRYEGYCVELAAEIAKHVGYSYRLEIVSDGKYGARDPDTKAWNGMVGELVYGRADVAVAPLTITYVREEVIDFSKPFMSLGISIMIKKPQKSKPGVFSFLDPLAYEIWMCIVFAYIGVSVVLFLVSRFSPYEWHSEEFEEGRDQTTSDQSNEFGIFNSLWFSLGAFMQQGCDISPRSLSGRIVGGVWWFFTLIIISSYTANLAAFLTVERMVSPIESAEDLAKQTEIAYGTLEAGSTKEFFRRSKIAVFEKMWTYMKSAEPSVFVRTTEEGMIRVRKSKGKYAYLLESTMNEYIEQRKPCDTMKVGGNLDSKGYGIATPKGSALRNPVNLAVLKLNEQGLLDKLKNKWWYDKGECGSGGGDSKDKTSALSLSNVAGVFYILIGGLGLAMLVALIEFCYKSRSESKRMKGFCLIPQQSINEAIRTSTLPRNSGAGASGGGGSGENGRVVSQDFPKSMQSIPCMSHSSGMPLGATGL
Sequence of GluATCV*^ΔNTD (P19490 with tags, fused parts or gaps L497Y): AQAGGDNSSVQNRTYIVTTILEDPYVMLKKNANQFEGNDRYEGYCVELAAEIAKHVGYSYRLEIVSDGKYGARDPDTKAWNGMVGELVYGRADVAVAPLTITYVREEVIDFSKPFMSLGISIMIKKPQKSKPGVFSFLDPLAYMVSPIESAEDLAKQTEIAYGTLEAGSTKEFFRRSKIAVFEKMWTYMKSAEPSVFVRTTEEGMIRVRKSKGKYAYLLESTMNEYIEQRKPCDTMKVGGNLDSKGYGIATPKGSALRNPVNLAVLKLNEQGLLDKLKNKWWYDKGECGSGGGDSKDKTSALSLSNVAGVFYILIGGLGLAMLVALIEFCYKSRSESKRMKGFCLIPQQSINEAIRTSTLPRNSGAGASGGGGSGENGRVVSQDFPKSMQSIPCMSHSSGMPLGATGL
Sequence of GluATCV*^ΔNTD (A7K9J5 1-82 partner): as the sequence (A7K9J5 entry or part of it G77S/F78L) above

[Ba+2] [Ba^2+]
Ba^2+-block of the leakage current ([1]; −70 mV, absence of agonist, 500 µM Ba^2+, n = 5): 93.5 ± 1.6% | Maximal Ba^2+-sensitive currents [2]: 1.0 ± 0.3 µA | Block of initial leakage and Glu-evoked currents by Ba^2+ ([2]; 500 µM Ba^2+): could be blocked | Ba^2+-block of the leakage current ([2]; −70 mV, n = 5): 84.4 ± 2.3% | Block of glutamate-induced and leakage currents by Ba^2+ [3]: could be efficiently blocked | Maximal Ba^2+-sensitive currents [3]: 0.8 ± 0.2 µA | Ba^2+-block of the leakage current ([3]; −70 mV, n = 5): 32.9 ± 10.8*** %

N#Cc1cc2nc(O)c(O)nc2cc1[N+](=O)[O-] [CNQX, 6-cyano-7-nitroquinoxaline-2,3-dione]
IC50 [4]: 2200 nM and 2000 nM

N[C@@H](CCC(=O)O)C(=O)O [glutamate, L-glutamate]
Currents in response to glutamate ([1]; 1 mM glutamate): could not elicit any currents | Glutamate-induced fraction of the Ba^2+-block (IGlu/IBa) ([2]; fraction of total Ba^2+-sensitive current, n = 5): 36.4 ± 4.6% | Glu-elicited current amplitude ([2]; −70 mV, n = 10): 0.4 ± 0.3 µA | Response to Glu application [5]: remained insensitive | Glutamate-induced fraction of the Ba^2+-block (IGlu/IBa) ([3]; n = 5): 68.2 ± 5.2** % | Glutamate-induced fraction of the Ba^2+-block (IGlu/IBa) ([3]; n = 5, listed as Glu): 68.2 ± 5.2% | Glu-inducible current amplitude (IGlu) ([3]; n = 5): 0.7 ± 0.2 µA | Imax (GluATCV*^ΔNTD): 1.0 ± 0.26 µA

From paper PMC6385376, “Coupling of a viral K^+-channel with a glutamate-binding-domain highlights the modular design of ionotropic glutamate-receptors” (Communications Biology, 2019)
